What was measured:
[1] = tested on: deep lymph nodes, thoracic duct and lymphatic vessels; experiment: Whole-body 3D-micro-MR lymphangiography of normal mice, PAMAM-G8 versus GPDM (Example 3); type: in vivo; conditions: intracutaneous injection, 0.05 mmolGd/kg (FIG. 13)
Method: (§1) The mice were anesthetized with 1.15 mg sodium pentobarbital (Dainabot, Osaka, Japan) i.p., and then injected intracutaneously with 0.1 μmolGd of PAMAM-G8, DAB-G5, PAMAM-G4, Gadomer-17, or GPDM into four middle phalanges in all four extremities. Dynamic micro-MR images were obtained using a 1.5-Tesla superconductive magnet unit (Signa LX, General Electric Medical System, Milwaukee, Wis.) with a round birdcage type coil of 3 cm diameter fixed by a custom-made coil holder. Four to eight female mice (7 weeks old, 18-21 g body weight) in each group were used and each contrast agent was prepared at least three separate times for these imaging studies. The mice were wrapped with gauze to stabilize their body temperature and were placed at the center of the coils.
(§2) A 3D-fast spoiled gradient echo [3D-fastSPGR (efgre3d package; Signa Horizon, GE); repetition time/echo time 28.5/7.9 msec; inversion time 65 msec; 31.2 kHz, flip angle 30°, four excitations; 40 slice-encoding steps; scan time 7 min 36 seconds] with chemical shift fat-suppression was used 10, 20, 30, and 45 min after injection of the contrast agents. The coronal images were reconstructed with 0.6-mm section thickness at every 0.3-mm. The FOV was 6×3 cm and the size of the matrix was 512×256. The intensities of the regions of interest (ROIs) (for example, a whole axillary lymph node, and the liver) were measured, and then the time-intensity curves analyzed. The data were expressed as the axillary lymph node-to-muscle and the axillary lymph node-to-liver ratios. The slice data were processed into 3D images using the MIP method with the same window and level (window 3500 and level 2300) (Advantage Windows, General Electric Medical System). Two board-certified radiologists separately read a set of stereo views of 3D-MRL for all studies, and estimated the visualization of the thoracic duct. After imaging, the mice were sacrificed by carbon dioxide inhalation.
In this example, the PAMAM-G8 contrast agent is compared to GPDM. PAMAM-G8 was prepared as described in Example 2, and GPDM was purchased (Schering AG, Berlin, Germany). Animal models, administration of the contrast agents, and 3D-micro-MRL were as described in Example 2.

[2] = tested on: draining lymph nodes and lymphatic vessels; experiment: 3D dynamic mammo-lymphangiograms after sequential injection of GPDM and PAMAM-G6 into the mammary gland; type: in vivo, athymic nu/nu mice; conditions: 0.15 μmol Gd into mammary gland; GPDM imaged at 12, 24, 36 min, then PAMAM-G6 injected 36 minutes following GPDM
Method: Mice were anesthetized with 1.15 mg sodium pentobarbital (Dainabot, Osaka, Japan), and then injected with 0.15-0.24 μmol Gd/5-8 μL of the PAMAM-G6 contrast agent into normal mammary glands or mammary tissue surrounding a tumor (peritumorally). Dynamic micro-MR images were obtained using a 1.5-Tesla superconductive magnet unit (Signa LX, General Electric Medical System, Milwaukee, Wis.) with a birdcage type coil of 3 cm diameter fixed by a custom made coil holder. [Single and double “breast coils” used for imaging breasts in humans are commercially available, for example, from GE Medical Systems (Milwaukee, Wis.) and are routinely available in outpatient MRI centers] The mice were wrapped with gauze to stabilize their body temperature and were placed at the center of the coils. Athymic nu/nu mice (n=4) were anesthetized and injected with 0.15 μmol Gd of GPDM into the mammary gland, and images were taken 12, 24, and 36 min after injection. Following these three images, these mice were subsequently injected with 0.15 μmol Gd of PAMAM-G6 contrast agent in the mammary gland, and images were taken at 12 and 24 min post-injection of the PAMAM-G6 contrast agent (at 48 and 60 min post-injection of GPDM).

deep lymphatic system = experiment: Whole-body dynamic 3D-micro-MR lymphangiography of normal mice (Example 2); type: in vivo; conditions: for Number of Mice in Which the Thoracic Duct was Visualized/Number of Mice Examined: Normal Mice, 0.1 μmolGd intracutaneously into four middle phalanges; for Visualization of the deep lymph nodes: normal mice, 10 to 45 min after intracutaneous injection, FIGS. 7, 8; for Axillary lymph node-to-background (muscle) signal intensity ratio, comparison between agents: T1-weighted signal, P<0.01, FIG. 9A; for Axillary lymph node-to-background (muscle) signal intensity ratio, comparison between agents / Axillary lymph node-to-liver signal intensity ratio, comparison between agents: all time points examined; for Axillary lymph node-to-liver signal intensity ratio, comparison between agents: P<0.01, FIG. 9B
Method: as §1, §2
Statistical analyses were performed using either Student's t-test or a one-way analysis of variance (ANOVA), with a pairwise comparison using the Bonferroni method for signal intensity curves (Statview; SAS Institute Inc., Cary, N.C.).

[3] = Distribution and survival properties of the dendrimer conjugates; conditions: in vivo
[4] = tested on: lymph nodes and lymphatic vessels of IL-15 transgenic mice; experiment: 3D-micro-MRL in IL-15 transgenic lymphoproliferative/neoplastic disease model; type: in vivo; conditions: 45 minutes after injection, FIGS. 11, 15A
Method: Eight- to 10-month old IL-15 transgenic mice (on a C57BL6 background) were used as a chronic lymphoproliferative/neoplastic disease model because they manifested selective expansion of NK, CD8^+NK-T, γδIELs, and CD8 T cells in the periphery. Most of the lymph nodes collected from an aged IL-15 transgenic mouse were enlarged in size. The lesion of proliferated monoclonal lymphocytes often involved the lung and the subcutaneous lymphatic tissue.
as §1
as §2, with “The FOV was 6×3 cm and the size of the matrix was 512×256.” left out, “The slice data were processed into 3D images using the MIP method with the same window and level (window 3500 and level 2300) (Advantage Windows, General Electric Medical System).” left out, “After imaging, the mice were sacrificed by carbon dioxide inhalation.” left out

Compound	Visualization of deep lymph nodes throughout the body [1]	Visualization of draining lymph nodes and lymphatic vessels (FIG. 3) [2]	Image enhancement (deep lymphatic system; 45 minutes after injection, FIG. 8B)	Number of Mice in Which the Thoracic Duct was Visualized/Number of Mice Examined (deep lymphatic system; 10 min)	Number of Mice in Which the Thoracic Duct was Visualized/Number of Mice Examined (deep lymphatic system; 20 min)	Number of Mice in Which the Thoracic Duct was Visualized/Number of Mice Examined (deep lymphatic system; 30 min)	Number of Mice in Which the Thoracic Duct was Visualized/Number of Mice Examined (deep lymphatic system; 45 min)	Visualization of the deep lymph nodes (deep lymphatic system)	Axillary lymph node-to-background (muscle) signal intensity ratio, comparison between agents (deep lymphatic system)	Axillary lymph node-to-liver signal intensity ratio, comparison between agents (deep lymphatic system)	Distribution within the lymphatic system [3]	Lymph node findings on 3D-micro-MRL [4]	Survival in the blood circulation and excretion [3]
CNC[C@H](O)[C@@H](O)[C@H](O)[C@H](O)CO.CNC[C@H](O)[C@@H](O)[C@H](O)[C@H](O)CO.O=C([O-])CN(CCN(CC(=O)[O-])CC(=O)O)CCN(CC(=O)[O-])CC(=O)O.[Gd+3] [GPDM, gadopentetate dimeglumine, reference compound]	but not with GPDM	not well visualized	Virtually no image enhancement	2/5	0/5	0/5	0/5	did not allow most of the lymph nodes to be visualized even at early times	–	–	–	–	–
DAB-Am-128-(Gd-1B4M)128 dendrimer conjugate [DAB-G5]	–	–	–	3/5	2/5	0/5	0/5	–	significantly higher than that obtained with either PAMAM-G8 or PAMAM-G4	nearly equivalent, but were significantly higher than that measured with GPDM	tend to accumulate in the lymph nodes rather than the vessels	considerable multiple lymph node swellings with central filling defects	–
PAMAM-G4D-(Gd-1B4M)64 dendrimer conjugate	–	–	–	4/5	4/5	3/5	2/5	–	significantly higher than that measured with Gadomer-17 and GPDM	significantly higher than that acquired with PAMAM-G8, DAB G-5, or Gadomer-17	tend to accumulate in the lymph nodes rather than the vessels	–	short survival in the blood circulation due to a rapid renal excretion without significant retention in other organs
Gadomer-17 [reference compound]	–	–	–	2/5	2/5	1/5	1/5	allowed visualization of the deep lymph nodes, albeit not as clearly and brightly as the dendrimer-based agents	significantly higher than that acquired with GPDM	nearly equivalent, but were significantly higher than that measured with GPDM	–	–	–

From US20050171424A1, “Methods for imaging the lymphatic system using dendrimer-based contrast agents” (The Gov. of the USA as rep. by the Secretary of the Dept. …, priority 2004, published 2005)
